Test results taken from EP2433927A1, “KETOXIME ESTER PHOTOINITIATOR” (Changzhou Tronly New Electronic Materials Co., Ltd, priority 2009, dated 2010).

Legend:
[1] = Thermal stability by TGA (temperature at weight loss); assay type: physicochemical; conditions: for Temp. at Weight Loss 5% / Temp. at Weight Loss 10% / Temp. at Weight Loss 15%: TGA, N2 at 10 °C/min; for Temp. at Weight Loss 5%: 5% weight loss; for Temp. at Weight Loss 10%: 10% weight loss; for Temp. at Weight Loss 15%: 15% weight loss; for thermal stability: result in words, compared with material A (OXE-1)
[2] = Solubility of the photoinitiators in organic solvents; assay type: physicochemical; conditions: 20°C, 100 g solvent

For `CCCCCCC(=NOC(=O)c1ccccc1)C(=O)c1ccc(Sc2ccccc2)cc1` [A, 1-(4-phenylthiophenyl)-n-octane-1,2-dione-2-benzoic acid oxime ester, reference compound], the “Temp. at Weight Loss 5%” value [1] was 185 °C, the “Temp. at Weight Loss 10%” value [1] was 201 °C and the “Temp. at Weight Loss 15%” value [1] was 213 °C.
With `O=C(ON=C(CC1CCCC1)C(=O)c1ccc(Sc2ccccc2)cc1)c1ccccc1` [B, 1-(4-phenylthiophenyl)-(3-cyclopentyl)-propane-1,2-dione-2-benzoic acid oxime ester] the solubility ([2]; solvent PGMEA) was 27.49 g, the solubility ([2]; solvent cyclohexanone) was 35 g and the “Temp. at Weight Loss 5%” value [1] was 205 °C. For the same molecule, the “Temp. at Weight Loss 10%” value [1] was 225 °C, the “Temp. at Weight Loss 15%” value [1] was 236 °C and the thermal stability [1] was “better thermal stability than that of material A”.
In the case of `CCn1c2ccc(C(=O)C(CC3CCCC3)=NOC(=O)c3ccccc3)cc2c2cc(C(=O)c3ccccc3C)ccc21` [C, 1-(6-o-methylbenzoyl-9-ethylcarbazole-3-yl)-(3-cyclopentyl)-propane-1,2-dione-2-benzoic acid oxime ester], the solubility ([2]; solvent PGMEA) is reported as 6.93 g, the solubility ([2]; solvent cyclohexanone) is reported as 18 g and the “Temp. at Weight Loss 5%” value [1] is reported as 230 °C. The “Temp. at Weight Loss 10%” value [1] was 245 °C, the “Temp. at Weight Loss 15%” value [1] was 255 °C and the thermal stability [1] was “better thermal stability than that of material A”.
